Data reported in the NIST ThermoML archive (doi:10.1007/s10765-006-0051-4).
± gives the expanded uncertainty stated by the source.

Assay: xn = mol fraction of the nth substance listed
Details: Gas, Oscillating disk viscometry

FC(F)C(F)(F)F [pentafluoroethane] + CCC
Details	viscosity [mPa·s]
398.15 K, 5040.9 kPa, x1 = 0.7503	0.02051 ± 0.00063
398.15 K, 5179.6 kPa, x1 = 0.5011	0.01885 ± 0.00059
398.15 K, 5224.5 kPa, x1 = 0.7503	0.02087 ± 0.00064
398.15 K, 5374.2 kPa, x1 = 0.5011	0.01934 ± 0.0006
398.15 K, 5462.4 kPa, x1 = 0.7503	0.0215 ± 0.00065
398.15 K, 5801.5 kPa, x1 = 0.7503	0.0224 ± 0.00068
423.15 K, 101.3 kPa, x1 = 0.5011	0.01525 ± 0.00051
423.15 K, 102.4 kPa, x1 = 0.7503	0.01671 ± 0.00054
423.15 K, 194.6 kPa, x1 = 0.7503	0.01672 ± 0.00054
423.15 K, 200.5 kPa, x1 = 0.5011	0.01531 ± 0.00051
423.15 K, 336.4 kPa, x1 = 0.7503	0.01676 ± 0.00054
423.15 K, 390.6 kPa, x1 = 0.5011	0.01537 ± 0.00051
423.15 K, 570.1 kPa, x1 = 0.7503	0.01682 ± 0.00055
423.15 K, 586.2 kPa, x1 = 0.5011	0.01537 ± 0.00051
423.15 K, 781.9 kPa, x1 = 0.5011	0.01543 ± 0.00051
423.15 K, 812.9 kPa, x1 = 0.7503	0.01692 ± 0.00055
423.15 K, 960.2 kPa, x1 = 0.5011	0.01542 ± 0.00051
423.15 K, 1055.8 kPa, x1 = 0.7503	0.01696 ± 0.00055
423.15 K, 1175.7 kPa, x1 = 0.5011	0.01552 ± 0.00052
423.15 K, 1254.9 kPa, x1 = 0.7503	0.01706 ± 0.00055
423.15 K, 1421.7 kPa, x1 = 0.5011	0.01565 ± 0.00052
423.15 K, 1448.9 kPa, x1 = 0.7503	0.01715 ± 0.00055
423.15 K, 1640 kPa, x1 = 0.7503	0.01724 ± 0.00056
423.15 K, 1658.8 kPa, x1 = 0.5011	0.01573 ± 0.00052
423.15 K, 1898.5 kPa, x1 = 0.5011	0.01584 ± 0.00052
423.15 K, 1906.4 kPa, x1 = 0.7503	0.0174 ± 0.00056
423.15 K, 2128.2 kPa, x1 = 0.7503	0.01752 ± 0.00056
423.15 K, 2142.2 kPa, x1 = 0.5011	0.01598 ± 0.00053
423.15 K, 2375.9 kPa, x1 = 0.7503	0.01766 ± 0.00056
423.15 K, 2381.7 kPa, x1 = 0.5011	0.01613 ± 0.00053
423.15 K, 2575.8 kPa, x1 = 0.5011	0.01623 ± 0.00053
423.15 K, 2591.5 kPa, x1 = 0.7503	0.01781 ± 0.00057
423.15 K, 2903.1 kPa, x1 = 0.5011	0.01643 ± 0.00054
423.15 K, 2919.3 kPa, x1 = 0.7503	0.01808 ± 0.00057
423.15 K, 3148.8 kPa, x1 = 0.5011	0.01663 ± 0.00054
423.15 K, 3160.1 kPa, x1 = 0.7503	0.01824 ± 0.00058
423.15 K, 3289.3 kPa, x1 = 0.7503	0.01836 ± 0.00058
423.15 K, 3412.8 kPa, x1 = 0.5011	0.01685 ± 0.00055
423.15 K, 3552.1 kPa, x1 = 0.7503	0.01859 ± 0.00059
423.15 K, 3651.4 kPa, x1 = 0.5011	0.01705 ± 0.00055
423.15 K, 3813.6 kPa, x1 = 0.7503	0.01886 ± 0.00059
423.15 K, 3903.9 kPa, x1 = 0.5011	0.01729 ± 0.00056
423.15 K, 4061.5 kPa, x1 = 0.7503	0.01916 ± 0.0006
423.15 K, 4138.6 kPa, x1 = 0.5011	0.01756 ± 0.00056
423.15 K, 4298.5 kPa, x1 = 0.7503	0.01944 ± 0.00061
423.15 K, 4492.6 kPa, x1 = 0.7503	0.01962 ± 0.00061
423.15 K, 4533.7 kPa, x1 = 0.5011	0.01792 ± 0.00057
423.15 K, 4689.8 kPa, x1 = 0.7503	0.01988 ± 0.00062
423.15 K, 4822.7 kPa, x1 = 0.5011	0.01823 ± 0.00058
423.15 K, 4902.5 kPa, x1 = 0.7503	0.02023 ± 0.00063
423.15 K, 5070 kPa, x1 = 0.7503	0.02042 ± 0.00063
423.15 K, 5073.7 kPa, x1 = 0.5011	0.01858 ± 0.00059
423.15 K, 5285.8 kPa, x1 = 0.7503	0.02077 ± 0.00064
423.15 K, 5357.3 kPa, x1 = 0.5011	0.01897 ± 0.0006
423.15 K, 5493.3 kPa, x1 = 0.7503	0.02108 ± 0.00064
423.15 K, 5672.2 kPa, x1 = 0.7503	0.02139 ± 0.00065
423.15 K, 5701.1 kPa, x1 = 0.5011	0.01947 ± 0.00061
423.15 K, 5887.3 kPa, x1 = 0.7503	0.02175 ± 0.00066
423.15 K, 6049.1 kPa, x1 = 0.5011	0.02 ± 0.00062
423.15 K, 6270.6 kPa, x1 = 0.5011	0.02038 ± 0.00063
423.15 K, 6494.5 kPa, x1 = 0.5011	0.0208 ± 0.00064
423.15 K, 6710.2 kPa, x1 = 0.5011	0.02129 ± 0.00065
